# Experimental data taken from ChEMBL document CHEMBL1681700, “Cytotoxic 3,6-bis((imidazolidinone)imino)acridines: synthesis, DNA binding and molecular modeling” (Bioorg Med Chem, 2011).
# pIC50: −log10 of the molar value. The source made the active and inactive calls. The rule behind the calls is not given here.
# System: Calf thymus DNA
# Assay: Binding affinity to calf thymus DNA assessed as hypochromic effect by UV-visible spectrophotometer
# Assay type: nucleic-acid assay
# Design: concentration or dose not given beside the values
# Details: Bos taurus
row,Activity,Structure (SMILES)
1,45%,CCCCCN1C(=O)CN/C1=N\c1ccc2cc3ccc(/N=C4\NCC(=O)N4CCCCC)cc3nc2c1
2,54%,CCCN1C(=O)CN/C1=N\c1ccc2cc3ccc(/N=C4\NCC(=O)N4CCC)cc3nc2c1.Cl

# System: Calf thymus DNA
# Assay: Binding affinity to calf thymus DNA at pH 7.4 by UV-visible spectrophotometer
# Assay type: nucleic-acid assay
# Details: Bos taurus
row,K,Structure (SMILES)
1,2.8 ×10⁵ /M,CCCCCN1C(=O)CN/C1=N\c1ccc2cc3ccc(/N=C4\NCC(=O)N4CCCCC)cc3nc2c1
2,5.7 ×10⁵ /M,CCCN1C(=O)CN/C1=N\c1ccc2cc3ccc(/N=C4\NCC(=O)N4CCC)cc3nc2c1.Cl

# Species: Bos taurus
# Assay: Inhibition of calf thymus topoisomerase 1-mediated supercoiled DNA relaxation at 5 uM after 45 mins by ethidium bromide staining agarose gel electrophoresis
# Details: not given
row,inhibition,Structure (SMILES)
1,inactive,CCCCCN1C(=O)CN/C1=N\c1ccc2cc3ccc(/N=C4\NCC(=O)N4CCCCC)cc3nc2c1
2,inactive,CCCN1C(=O)CN/C1=N\c1ccc2cc3ccc(/N=C4\NCC(=O)N4CCC)cc3nc2c1.Cl

# Species: Bos taurus
# Assay: Inhibition of calf thymus topoisomerase 1-mediated supercoiled DNA relaxation at 40 uM after 45 mins by ethidium bromide staining agarose gel electrophoresis
# Details: not given
row,inhibition,Structure (SMILES)
1,Active,CCCCCN1C(=O)CN/C1=N\c1ccc2cc3ccc(/N=C4\NCC(=O)N4CCCCC)cc3nc2c1
2,Active,CCCN1C(=O)CN/C1=N\c1ccc2cc3ccc(/N=C4\NCC(=O)N4CCC)cc3nc2c1.Cl

# System: HL-60
# Assay: Cytotoxicity against human HL60 cells after 48 hrs by MTT assay
# Assay type: functional, cell-based
# Details: HL-60, 48 h
row,Structure (SMILES),pIC50
1,CCCCCN1C(=O)CN/C1=N\c1ccc2cc3ccc(/N=C4\NCC(=O)N4CCCCC)cc3nc2c1,5.08
2,CCCN1C(=O)CN/C1=N\c1ccc2cc3ccc(/N=C4\NCC(=O)N4CCC)cc3nc2c1.Cl,4.13

# System: HL-60
# Assay: Cytotoxicity against human HL60 cells after 72 hrs by MTT assay
# Assay type: functional, cell-based
# Details: HL-60, 72 h
row,Structure (SMILES),pIC50
1,CCCCCN1C(=O)CN/C1=N\c1ccc2cc3ccc(/N=C4\NCC(=O)N4CCCCC)cc3nc2c1,5.07
2,CCCN1C(=O)CN/C1=N\c1ccc2cc3ccc(/N=C4\NCC(=O)N4CCC)cc3nc2c1.Cl,4.02

# System: L1210
# Assay: Cytotoxicity against mouse L1210 cells after 48 hrs by MTT assay
# Assay type: functional, cell-based
# Details: L1210, 48 h
row,Structure (SMILES),pIC50
1,CCCCCN1C(=O)CN/C1=N\c1ccc2cc3ccc(/N=C4\NCC(=O)N4CCCCC)cc3nc2c1,4.86
2,CCCN1C(=O)CN/C1=N\c1ccc2cc3ccc(/N=C4\NCC(=O)N4CCC)cc3nc2c1.Cl,4.34

# System: L1210
# Assay: Cytotoxicity against mouse L1210 cells after 72 hrs by MTT assay
# Assay type: functional, cell-based
# Details: L1210, 72 h
row,Structure (SMILES),pIC50
1,CCCCCN1C(=O)CN/C1=N\c1ccc2cc3ccc(/N=C4\NCC(=O)N4CCCCC)cc3nc2c1,4.82
2,CCCN1C(=O)CN/C1=N\c1ccc2cc3ccc(/N=C4\NCC(=O)N4CCC)cc3nc2c1.Cl,4.17

# System: HL-60
# Assay: Cytotoxicity against human HL60 cells after 48 hrs by trypan blue dye exclusion test
# Assay type: functional, cell-based
# Details: HL-60, 48 h
row,Structure (SMILES),pIC50
1,CCCCCN1C(=O)CN/C1=N\c1ccc2cc3ccc(/N=C4\NCC(=O)N4CCCCC)cc3nc2c1,5.27
2,CCCN1C(=O)CN/C1=N\c1ccc2cc3ccc(/N=C4\NCC(=O)N4CCC)cc3nc2c1.Cl,4.15

# System: HL-60
# Assay: Cytotoxicity against human HL60 cells after 72 hrs by trypan blue dye exclusion test
# Assay type: functional, cell-based
# Details: HL-60, 72 h
row,Structure (SMILES),pIC50
1,CCCCCN1C(=O)CN/C1=N\c1ccc2cc3ccc(/N=C4\NCC(=O)N4CCCCC)cc3nc2c1,5.14
2,CCCN1C(=O)CN/C1=N\c1ccc2cc3ccc(/N=C4\NCC(=O)N4CCC)cc3nc2c1.Cl,4.05

# System: L1210
# Assay: Cytotoxicity against mouse L1210 cells after 48 hrs by trypan blue dye exclusion test
# Assay type: functional, cell-based
# Details: L1210, 48 h
row,Structure (SMILES),pIC50
1,CCCCCN1C(=O)CN/C1=N\c1ccc2cc3ccc(/N=C4\NCC(=O)N4CCCCC)cc3nc2c1,4.91
2,CCCN1C(=O)CN/C1=N\c1ccc2cc3ccc(/N=C4\NCC(=O)N4CCC)cc3nc2c1.Cl,4.35

# System: L1210
# Assay: Cytotoxicity against mouse L1210 cells after 72 hrs by trypan blue dye exclusion test
# Assay type: functional, cell-based
# Details: L1210, 72 h
row,Structure (SMILES),pIC50
1,CCCCCN1C(=O)CN/C1=N\c1ccc2cc3ccc(/N=C4\NCC(=O)N4CCCCC)cc3nc2c1,4.80
2,CCCN1C(=O)CN/C1=N\c1ccc2cc3ccc(/N=C4\NCC(=O)N4CCC)cc3nc2c1.Cl,4.18

# System: not listed separately
# Assay: Octanol-water partition coefficient, log P of the compound
# Assay type: physicochemical
# Details: not given
row,logP,Structure (SMILES)
1,4.99,CCCCCN1C(=O)CN/C1=N\c1ccc2cc3ccc(/N=C4\NCC(=O)N4CCCCC)cc3nc2c1
2,3.21,CCCN1C(=O)CN/C1=N\c1ccc2cc3ccc(/N=C4\NCC(=O)N4CCC)cc3nc2c1.Cl

# System: HL-60
# Assay: Drug uptake in human HL60 cells assessed as drug accumulation at 5 uM after 140 mins by fluorescence analysis
# Assay type: ADME, cell-based
# Details: hl-60, 140 min
row,Drug uptake,Structure (SMILES)
1,Not Active,CCCN1C(=O)CN/C1=N\c1ccc2cc3ccc(/N=C4\NCC(=O)N4CCC)cc3nc2c1.Cl

# System: HL-60
# Assay: Drug uptake in human HL60 cells assessed as drug distribution in plasmatic membrane and cytosol at 5 uM after 4 hrs by fluorescence analysis
# Assay type: ADME, cell-based
# Details: hl-60, 4 h
row,Drug uptake,Structure (SMILES)
1,Active,CCCN1C(=O)CN/C1=N\c1ccc2cc3ccc(/N=C4\NCC(=O)N4CCC)cc3nc2c1.Cl

# System: HL-60
# Assay: Drug uptake in human HL60 cells assessed as drug accumulation in nucleus at 5 uM after 24 hrs by fluorescence analysis
# Assay type: ADME, cell-based
# Details: hl-60, 24 h
row,Drug uptake,Structure (SMILES)
1,Not Active,CCCN1C(=O)CN/C1=N\c1ccc2cc3ccc(/N=C4\NCC(=O)N4CCC)cc3nc2c1.Cl

# System: U-937
# Assay: Induction of apoptosis in human U937 cells assessed as DNA fragmentation at 122 uM after 18 hrs by ethidium bromide staining agarose gel electrophoresis
# Assay type: functional, cell-based
# Details: not given
row,Structure (SMILES),Activity
1,CCCCCN1C(=O)CN/C1=N\c1ccc2cc3ccc(/N=C4\NCC(=O)N4CCCCC)cc3nc2c1,Active
2,CCCN1C(=O)CN/C1=N\c1ccc2cc3ccc(/N=C4\NCC(=O)N4CCC)cc3nc2c1.Cl,Active

# System: Calf thymus DNA
# Assay: Binding affinity to C:G base pair region of calf thymus DNA by UV-visible spectrophotometer
# Assay type: nucleic-acid assay
# Details: Bos taurus
row,Activity,Structure (SMILES)
1,Active,CCCCCN1C(=O)CN/C1=N\c1ccc2cc3ccc(/N=C4\NCC(=O)N4CCCCC)cc3nc2c1
2,Active,CCCN1C(=O)CN/C1=N\c1ccc2cc3ccc(/N=C4\NCC(=O)N4CCC)cc3nc2c1.Cl

# System: Calf thymus DNA
# Assay: Binding affinity to A:T base pair region of calf thymus DNA by UV-visible spectrophotometer
# Assay type: nucleic-acid assay
# Details: Bos taurus
row,Activity,Structure (SMILES)
1,inactive,CCCCCN1C(=O)CN/C1=N\c1ccc2cc3ccc(/N=C4\NCC(=O)N4CCCCC)cc3nc2c1
2,inactive,CCCN1C(=O)CN/C1=N\c1ccc2cc3ccc(/N=C4\NCC(=O)N4CCC)cc3nc2c1.Cl
